{"source": "PubChem BioAssay (NCI)", "test_in_all_cases": "NCI anticancer screen, dose series, 48 h", "key": {"U251 CNS": {"test_system": "U251 CNS"}, "NCI-H23 lung": {"test_system": "NCI-H23 lung"}, "HCT-116 colon": {"test_system": "HCT-116 colon"}, "UACC-62 melanoma": {"test_system": "UACC-62 melanoma"}, "SK-MEL-28 melanoma": {"test_system": "SK-MEL-28 melanoma"}, "DU-145 prostate": {"test_system": "DU-145 prostate"}, "MDA-MB-231 breast": {"test_system": "MDA-MB-231 breast"}, "BT-549 breast": {"test_system": "BT-549 breast"}, "786-0 renal": {"test_system": "786-0 renal"}, "EKVX NSCLC": {"test_system": "EKVX NSCLC"}, "SF-295 CNS": {"test_system": "SF-295 CNS"}, "SN12C renal": {"test_system": "SN12C renal"}, "MDA-N": {"test_system": "MDA-N"}, "SW-620 colon": {"test_system": "SW-620 colon"}, "COLO 205 colon": {"test_system": "COLO 205 colon"}, "HOP-92 NSCLC": {"test_system": "HOP-92 NSCLC"}, "OVCAR-5 ovarian": {"test_system": "OVCAR-5 ovarian"}, "UO-31 renal": {"test_system": "UO-31 renal"}, "HOP-62 NSCLC": {"test_system": "HOP-62 NSCLC"}, "SNB-19 CNS": {"test_system": "SNB-19 CNS"}, "A549 NSCLC": {"test_system": "A549 NSCLC"}, "SK-MEL-2 melanoma": {"test_system": "SK-MEL-2 melanoma"}, "MOLT-4 leukemia": {"test_system": "MOLT-4 leukemia"}, "UACC-257 melanoma": {"test_system": "UACC-257 melanoma"}, "HCC-2998 colon": {"test_system": "HCC-2998 colon"}, "PC-3 prostate": {"test_system": "PC-3 prostate"}, "SR leukemia": {"test_system": "SR leukemia"}, "SF-539 CNS": {"test_system": "SF-539 CNS"}, "OVCAR-4 ovarian": {"test_system": "OVCAR-4 ovarian"}, "ACHN renal": {"test_system": "ACHN renal"}, "TK-10 renal": {"test_system": "TK-10 renal"}, "MDA-MB-435": {"test_system": "MDA-MB-435"}, "CCRF-CEM leukemia": {"test_system": "CCRF-CEM leukemia"}, "OVCAR-8 ovarian": {"test_system": "OVCAR-8 ovarian"}, "SK-MEL-5 melanoma": {"test_system": "SK-MEL-5 melanoma"}, "K-562 leukemia": {"test_system": "K-562 leukemia"}, "MCF7 breast": {"test_system": "MCF7 breast"}, "HL-60(TB) leukemia": {"test_system": "HL-60(TB) leukemia"}, "HT29 colon": {"test_system": "HT29 colon"}, "MALME-3M melanoma": {"test_system": "MALME-3M melanoma"}, "NCI-H522 lung": {"test_system": "NCI-H522 lung"}, "LOX IMVI melanoma": {"test_system": "LOX IMVI melanoma"}, "OVCAR-3 ovarian": {"test_system": "OVCAR-3 ovarian"}, "RXF 393 renal": {"test_system": "RXF 393 renal"}, "SNB-75 CNS": {"test_system": "SNB-75 CNS"}, "SK-OV-3 ovarian": {"test_system": "SK-OV-3 ovarian"}, "M14 melanoma": {"test_system": "M14 melanoma"}, "A498 renal": {"test_system": "A498 renal"}, "KM12 colon": {"test_system": "KM12 colon"}, "NCI-H460 lung": {"test_system": "NCI-H460 lung"}, "IGROV1 ovarian": {"test_system": "IGROV1 ovarian"}, "CAKI-1 renal": {"test_system": "CAKI-1 renal"}, "SF-268 CNS": {"test_system": "SF-268 CNS"}, "HS 578T breast": {"test_system": "HS 578T breast"}, "HCT-15 colon": {"test_system": "HCT-15 colon"}}, "note": "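Tested at 5 concentrations; 48 h exposure; 96-well plates; endpoints linearly interpolated, else capped at highest concentration. TGI: total growth inhibition.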", "data": [{"smiles": "CC(C)C1=C(O)C2=C(C(=O)C1=O)C1(C)CCCC(C)(C)C1CC2O", "note": "(stereo not given)", "values": [{"measurement": "TGI", "setting": "U251 CNS", "result": "> 100", "unit": "µM"}, {"measurement": "TGI", "setting": "NCI-H23 lung", "result": 3.93, "unit": "µM"}, {"measurement": "TGI", "setting": "HCT-116 colon", "result": "> 100", "unit": "µM"}, {"measurement": "TGI", "setting": "UACC-62 melanoma", "result": 8.66, "unit": "µM"}, {"measurement": "TGI", "setting": "SK-MEL-28 melanoma", "result": 38.5, "unit": "µM"}, {"measurement": "TGI", "setting": "DU-145 prostate", "result": "> 100", "unit": "µM"}, {"measurement": "TGI", "setting": "MDA-MB-231 breast", "result": 9.46, "unit": "µM"}, {"measurement": "TGI", "setting": "BT-549 breast", "result": 25.9, "unit": "µM"}, {"measurement": "TGI", "setting": "786-0 renal", "result": "> 100", "unit": "µM"}, {"measurement": "TGI", "setting": "EKVX NSCLC", "result": 49.7, "unit": "µM"}, {"measurement": "TGI", "setting": "SF-295 CNS", "result": 64.4, "unit": "µM"}, {"measurement": "TGI", "setting": "SN12C renal", "result": 28, "unit": "µM"}, {"measurement": "TGI", "setting": "MDA-N", "result": 4.76, "unit": "µM"}, {"measurement": "TGI", "setting": "SW-620 colon", "result": 63.2, "unit": "µM"}, {"measurement": "TGI", "setting": "COLO 205 colon", "result": "> 100", "unit": "µM"}, {"measurement": "TGI", "setting": "HOP-92 NSCLC", "result": 13.3, "unit": "µM"}, {"measurement": "TGI", "setting": "OVCAR-5 ovarian", "result": 43.2, "unit": "µM"}, {"measurement": "TGI", "setting": "UO-31 renal", "result": 17.9, "unit": "µM"}, {"measurement": "TGI", "setting": "HOP-62 NSCLC", "result": 21.1, "unit": "µM"}, {"measurement": "TGI", "setting": "SNB-19 CNS", "result": 21.4, "unit": "µM"}, {"measurement": "TGI", "setting": "A549 NSCLC", "result": 34.8, "unit": "µM"}, {"measurement": "TGI", "setting": "SK-MEL-2 melanoma", "result": 11, "unit": "µM"}, {"measurement": "TGI", "setting": "MOLT-4 leukemia", "result": "> 100", "unit": "µM"}, {"measurement": "TGI", "setting": "UACC-257 melanoma", "result": 31.9, "unit": "µM"}, {"measurement": "TGI", "setting": "HCC-2998 colon", "result": 12, "unit": "µM"}, {"measurement": "TGI", "setting": "PC-3 prostate", "result": 31.7, "unit": "µM"}, {"measurement": "TGI", "setting": "SR leukemia", "result": 58.4, "unit": "µM"}, {"measurement": "TGI", "setting": "SF-539 CNS", "result": 52.7, "unit": "µM"}, {"measurement": "TGI", "setting": "OVCAR-4 ovarian", "result": 82.6, "unit": "µM"}, {"measurement": "TGI", "setting": "ACHN renal", "result": 13.2, "unit": "µM"}, {"measurement": "TGI", "setting": "TK-10 renal", "result": "> 100", "unit": "µM"}, {"measurement": "TGI", "setting": "MDA-MB-435", "result": 13.6, "unit": "µM"}, {"measurement": "TGI", "setting": "CCRF-CEM leukemia", "result": 23.6, "unit": "µM"}, {"measurement": "TGI", "setting": "OVCAR-8 ovarian", "result": 90.7, "unit": "µM"}, {"measurement": "TGI", "setting": "SK-MEL-5 melanoma", "result": 5.23, "unit": "µM"}, {"measurement": "TGI", "setting": "K-562 leukemia", "result": "> 100", "unit": "µM"}, {"measurement": "TGI", "setting": "MCF7 breast", "result": 22.8, "unit": "µM"}, {"measurement": "TGI", "setting": "HL-60(TB) leukemia", "result": 30.4, "unit": "µM"}, {"measurement": "TGI", "setting": "HT29 colon", "result": 62, "unit": "µM"}, {"measurement": "TGI", "setting": "MALME-3M melanoma", "result": 16.6, "unit": "µM"}, {"measurement": "TGI", "setting": "NCI-H522 lung", "result": 53.7, "unit": "µM"}, {"measurement": "TGI", "setting": "LOX IMVI melanoma", "result": "> 100", "unit": "µM"}, {"measurement": "TGI", "setting": "OVCAR-3 ovarian", "result": 29, "unit": "µM"}, {"measurement": "TGI", "setting": "RXF 393 renal", "result": 5.89, "unit": "µM"}, {"measurement": "TGI", "setting": "SNB-75 CNS", "result": "> 100", "unit": "µM"}, {"measurement": "TGI", "setting": "SK-OV-3 ovarian", "result": 45.5, "unit": "µM"}, {"measurement": "TGI", "setting": "M14 melanoma", "result": 15.3, "unit": "µM"}, {"measurement": "TGI", "setting": "A498 renal", "result": 38.6, "unit": "µM"}, {"measurement": "TGI", "setting": "KM12 colon", "result": 19, "unit": "µM"}, {"measurement": "TGI", "setting": "NCI-H460 lung", "result": 12.8, "unit": "µM"}, {"measurement": "TGI", "setting": "IGROV1 ovarian", "result": 77.7, "unit": "µM"}, {"measurement": "TGI", "setting": "CAKI-1 renal", "result": 24.1, "unit": "µM"}, {"measurement": "TGI", "setting": "SF-268 CNS", "result": "> 100", "unit": "µM"}, {"measurement": "TGI", "setting": "HS 578T breast", "result": "> 100", "unit": "µM"}, {"measurement": "TGI", "setting": "HCT-15 colon", "result": 13.8, "unit": "µM"}]}]}
